Results reported in patent US8158792B2, “Spiropiperidines for use as tryptase inhibitors” (Janssen Pharmaceutica N.V., priority 2007, dated 2012).

Molecular target: human lung tryptase
Assay: β-Tryptase In-Vitro Enzyme Assay
Format: biochemical
Details: human lung tryptase 1 nM, substrate H-D-HHT-Ala-Arg-pNa 500 μM, pH 7.4, room temperature
Description: The β-tryptase assay was conducted with human lung tryptase (Cortex Biochem #CP3033) in an aqueous buffer (10 mM Tris, 10 mM Hepes, 150 mM NaCl, 0.1% PEG 8000, pH 7.4) using the chromogenic substrate H-D-HHT-Ala-Arg-pNa. […] Percent inhibition was calculated by comparing the initial reaction velocity of samples without inhibitor to those with inhibitor. The initial reaction velocities were analyzed using Microsoft Excel.

IC50 [nM] | Compound
1600 | NCc1ccc2c(c1)C1(CCN(C(=O)c3ccc(CCl)cc3)CC1)CO2 [Cpd 69, 1-(4-chloromethyl-phenyl)carbonyl-5′-aminomethyl-spiro[piperidine-4,3′-(2H)-benzo[b]furan]]
140 | CN(C)C(=N)c1ccc2c(c1)C1(CCN(C(=O)c3ccc(C#Cc4ccccc4)o3)CC1)CO2 [Cpd 313, 1-(5-phenylethynyl-furan-2-yl)carbonyl-5′-[dimethylamino(imino)methyl]-spiro[piperidine-4,3′-(2H)-benzo[b]furan]]
740 | NCc1ccc2c(c1)C1(CCN(C(=O)/C=C/c3ccc(F)cc3)CC1)CO2 [Cpd 182, (E)-1-(4-fluoro-phenylethenyl)carbonyl-5′-aminomethyl-spiro[piperidine-4,3′-(2H)-benzo[b]furan]]
370 | CCCc1ccc(OCc2ccc(C(=O)N3CCC4(CC3)COc3ccc(CN)cc34)o2)c(OC)c1 [Cpd 212, 1-[5-(2-methoxy-4-propyl-phenoxymethyl)-furan-2-yl]carbonyl-5′-aminomethyl-spiro[piperidine-4,3′-(2H)-benzo[b]furan]]
5.1 | NCc1ccc2c(c1)C1(CCN(C(=O)c3sc(SCc4ccccc4)c4c3CCC=C4)CC1)CO2 [Cpd 241, 1-(3-benzylthio-7-hydro-6H-benzo[c]thien-1-yl)carbonyl-5′-aminomethyl-spiro[piperidine-4,3′-(2H)-benzo[b]furan]]
170 | Cc1nc(-c2ccc(C(F)(F)F)cc2)sc1C(=O)N1CCC2(CC1)COc1ccc(CN)cc12 [Cpd 128, 1-[2-(4-trifluoromethyl-phenyl)-4-methyl-thiazol-5-yl]carbonyl-5′-aminomethyl-spiro[piperidine-4,3′-(2H)-benzo[b]furan]]
960 | CSc1cccc(CC(=O)N2CCC3(CC2)COc2ccc(CN)cc23)c1 [Cpd 103, 1-(3-methylthio-benzyl)carbonyl-5′-aminomethyl-spiro[piperidine-4,3′-(2H)-benzo[b]furan]]
360 | NCc1ccc2c(c1)C1(CCN(C(=O)c3cccc(F)c3)CC1)CO2 [Cpd 42, 1-(3-fluoro-phenyl)carbonyl-5′-aminomethyl-spiro[piperidine-4,3′-(2H)-benzo[b]furan]]
36 | Cc1ccc(C(=O)N2CCC3(CC2)COc2ccc(CN)cc23)cc1I [Cpd 50, 1-(3-iodo-4-methyl-phenyl)carbonyl-5′-aminomethyl-spiro[piperidine-4,3′-(2H)-benzo[b]furan]]
9.2 | COc1cccc2c(C(=O)N3CCC4(CC3)COc3ccc(CN)cc34)sc(SC)c12 [Cpd 235, 1-(3-methylthio-4-methoxy-benzo[c]thien-1-yl)carbonyl-5′-aminomethyl-spiro[piperidine-4,3′-(2H)-benzo[b]furan]]
240 | NCc1ccc2c(c1)C1(CCN(C(=O)c3cccc(Oc4ccccc4)c3)CC1)CO2 [Cpd 115, 1-(3-phenoxy-phenyl)carbonyl-5′-aminomethyl-spiro[piperidine-4,3′-(2H)-benzo[b]furan]]
44 | CCOC(=O)C(=O)N1CC2(CCN(C(=O)c3ccc(C#Cc4ccccc4)o3)CC2)c2cc(CN)ccc21 [Cpd 329, 1-(5-phenylethynyl-furan-2-yl)carbonyl-1′-(2-ethoxy-1,2-dioxo-ethyl)-5′-aminomethyl-spiro[piperidine-4,3′-(2H)-indole]]
17 | CCCSc1sc(C(=O)N2CCC3(CC2)COc2ccc(CN)cc23)c2c1C(=O)CCC2 [Cpd 211, 1-(3-propylthio-4-oxo-5,6,7-trihydro-4H-benzo[c]thien-1-yl)carbonyl-5′-aminomethyl-spiro[piperidine-4,3′-(2H)-benzo[b]furan]]
4.3 | NCc1ccc2c(c1)C1(CCN(C(=O)c3ccc(C#Cc4ccccc4F)o3)CC1)CO2 [Cpd 35, 1-[5-(2-fluoro-phenylethynyl)-furan-2-yl]carbonyl-5′-aminomethyl-spiro[piperidine-4,3′-(2H)-benzo[b]furan]]
2400 | NCc1ccc2c(c1)C1(CCN(C(=O)/C=C/c3cccnc3)CC1)CO2 [Cpd 253, (E)-1-(pyridin-3-ylethenyl)carbonyl-5′-aminomethyl-spiro[piperidine-4,3′-(2H)-benzo[b]furan]]
600 | NCc1ccc2c(c1)C1(CCN(C(=O)/C=C/c3ccc(-c4ccccc4)cc3)CC1)CO2 [Cpd 117, (E)-1-(4-phenyl-phenylethenyl)carbonyl-5′-aminomethyl-spiro[piperidine-4,3′-(2H)-benzo[b]furan]]
230 | COc1cccc2c1OCC(C(=O)N1CCC3(CC1)COc1ccc(CN)cc13)=C2 [Cpd 197, 1-(8-methoxy-(2H)-chromen-3-yl)carbonyl-5′-aminomethyl-spiro[piperidine-4,3′-(2H)-benzo[b]furan]]
1400 | NCc1ccc2c(c1)C1(CCN(C(=O)C3c4ccccc4-c4ccccc43)CC1)CO2 [Cpd 289, 1-fluoren-9-ylcarbonyl-5′-aminomethyl-spiro[piperidine-4,3′-(2H)-benzo[b]furan]]

IC50 [nM] | Compound
600 | NCc1ccc2c(c1)C1(CCN(C(=O)/C=C/c3cccc(OC(F)(F)F)c3)CC1)CO2 [Cpd 167, (E)-1-(3-trifluoromethoxy-phenylethenyl)carbonyl-5′-aminomethyl-spiro[piperidine-4,3′-(2H)-benzo[b]furan]]
1400 | Cc1cccc(CC(=O)N2CCC3(CC2)COc2ccc(CN)cc23)c1 [Cpd 89, 1-(3-methyl-benzyl)carbonyl-5′-aminomethyl-spiro[piperidine-4,3′-(2H)-benzo[b]furan]]
25 | NCc1ccc2c(c1)C1(CCN(C(=O)c3ccc(C#Cc4ccccc4)o3)CC1)CN2C(N)=O [Cpd 325, 1-(5-phenylethynyl-furan-2-yl)carbonyl-1′-aminocarbonyl-5′-aminomethyl-spiro[piperidine-4,3′-(2H)-indole]]
590 | NCc1ccc2c(c1)C1(CCN(C(=O)/C(=C/c3ccccc3)c3ccccc3)CC1)CO2 [Cpd 190, (E)-1-(1-phenyl-2-phenylethenyl)carbonyl-5′-aminomethyl-spiro[piperidine-4,3′-(2H)-benzo[b]furan]]
7500 | NCc1ccc2c(c1)C1(CCN(C(=O)c3ccc(OC(F)(F)F)cc3)CC1)CO2 [Cpd 61, 1-(4-trifluoromethoxy-phenyl)carbonyl-5′-aminomethyl-spiro[piperidine-4,3′-(2H)-benzo[b]furan]]
2800 | CCc1ccc2c(Cl)c(C(=O)N3CCC4(CC3)COc3ccc(CN)cc34)sc2c1 [Cpd 271, 1-(3-chloro-6-ethyl-benzo[b]thien-2-yl)carbonyl-5′-aminomethyl-spiro[piperidine-4,3′-(2H)-benzo[b]furan]]
82 | NCc1ccc2c(c1)C1(CCN(C(=O)c3ccc(CCc4ccccc4)o3)CC1)CO2 [Cpd 107, 1-(5-phenethyl-furan-2-yl)carbonyl-5′-aminomethyl-spiro[piperidine-4,3′-(2H)-benzo[b]furan]]
87 | Cc1cc(OCc2ccc(C(=O)N3CCC4(CC3)COc3ccc(CN)cc34)o2)ccc1Cl [Cpd 139, 1-[5-(3-methyl-4-chloro-phenoxymethyl)-furan-2-yl]carbonyl-5′-aminomethyl-spiro[piperidine-4,3′-(2H)-benzo[b]furan]]
76 | NCc1ccc2c(c1)C1(CCN(C(=O)c3ccc(COc4cccc(Cl)c4)o3)CC1)CO2 [Cpd 134, 1-[5-(3-chloro-phenoxymethyl)-furan-2-yl]carbonyl-5′-aminomethyl-spiro[piperidine-4,3′-(2H)-benzo[b]furan]]
140 | NCc1ccc2c(c1)C1(CCN(C(=O)c3cccc(-c4ccc5c(c4)OCO5)c3)CC1)CO2 [Cpd 20, 1-(3-benzodioxol-5-yl-phenyl)carbonyl-5′-aminomethyl-spiro[piperidine-4,3′-(2H)-benzo[b]furan]]
28 | CSc1sc(C(=O)N2CCC3(CC2)COc2ccc(CN)cc23)cc1C#N [Cpd 258, 1-(4-cyano-5-methylthio-thien-2-yl)carbonyl-5′-aminomethyl-spiro[piperidine-4,3′-(2H)-benzo[b]furan]]
1500 | Cc1ccc2c(Cl)c(C(=O)N3CCC4(CC3)COc3ccc(CN)cc34)sc2c1 [Cpd 207, 1-(3-chloro-6-methyl-benzo[b]thien-2-yl)carbonyl-5′-aminomethyl-spiro[piperidine-4,3′-(2H)-benzo[b]furan]]
200 | NCc1ccc2c(c1)C1(CCN(C(=O)c3ccc(C#Cc4ccccc4)o3)CC1)CN2S(=O)(=O)c1ccc(C(=O)O)cc1 [Cpd 324, 1-(5-phenylethynyl-furan-2-yl)carbonyl-1′-(4-carboxy-phenyl)sulfonyl-5′-aminomethyl-spiro[piperidine-4,3′-(2H)-indole]]
220 | CSc1ccc(C(=O)N2CCC3(CC2)COc2ccc(CN)cc23)cc1 [Cpd 45, 1-(4-methylthio-phenyl)carbonyl-5′-aminomethyl-spiro[piperidine-4,3′-(2H)-benzo[b]furan]]
3000 | NCc1ccc2c(c1)C1(CCN(C(=O)c3ccc(Cn4cnc5ccccc54)cc3)CC1)CO2 [Cpd 10, 1-(4-benzoimidazol-1-ylmethyl-phenyl)carbonyl-5′-aminomethyl-spiro[piperidine-4,3′-(2H)-benzo[b]furan]]
280 | CCN1CC2(CCN(C(=O)c3ccc(C#Cc4ccccc4)o3)CC2)c2cc(CN)ccc21 [Cpd 320, 1-(5-phenylethynyl-furan-2-yl)carbonyl-1′-ethyl-5′-aminomethyl-spiro[piperidine-4,3′-(2H)-indole]]
47 | NCc1ccc2c(c1)C1(CCN(C(=O)c3ccc(C#Cc4ccccc4)o3)CC1)CN2C(=O)c1nnn[nH]1 [Cpd 334, 1-(5-phenylethynyl-furan-2-yl)carbonyl-1′-(1H-tetrazol-5-yl)carbonyl-5′-aminomethyl-spiro[piperidine-4,3′-(2H)-indole]]

Compound | IC50 [nM]
NCc1ccc2c(c1)C1(CCN(C(=O)C#Cc3ccccc3)CC1)CO2 [Cpd 108, 1-(phenylethynyl)carbonyl-5′-aminomethyl-spiro[piperidine-4,3′-(2H)-benzo[b]furan]] | 250
